According to PubChem BioAssay AID248 (DTP/NCI, 2004):
Where “and” joins values, the source holds several entries; their conditions need not be identical. Equal entries are not always repeated. Inconclusive results and toxic doses are left out. Rule as the data show it: active = T/C of 150% or more; inactive = T/C below 125%. Peptide text beside a SMILES is read from it. * marks the point of attachment. Cbz = O=C(OCc1ccccc1)*

System: L1210 leukemia ip in BDF1 mice, survival T/C
Test: NCI In Vivo Anticancer Drug Screen. Data for tumor model L1210 Leukemia (intraperitoneal) in B6D2F1 (BDF1) mice
Conditions: endpoint: mean survival time, higher = longer survival
Summary of the method: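 Survival endpoint. Drug-treated group vs vehicle group, expressed as T divided by C. Tumor passaged by transplantation.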

[1] = dose: 25.0 mg/kg/injection, schedule: Q04DX003 (ip), vehicle: Klucel (hydroxypropylcellulose) (HPC)
[2] = dose: 50.0 mg/kg/injection, schedule: Q04DX003 (ip), vehicle: Klucel (hydroxypropylcellulose) (HPC)
[3] = dose: 100.0 mg/kg/injection, schedule: Q01DX001 (ip), vehicle: Klucel (hydroxypropylcellulose) (HPC)
[4] = dose: 100.0 mg/kg/injection, schedule: Q04DX003 (ip), vehicle: Klucel (hydroxypropylcellulose) (HPC)
[5] = dose: 200.0 mg/kg/injection, schedule: Q01DX001 (ip), vehicle: Klucel (hydroxypropylcellulose) (HPC)
[6] = dose: 400.0 mg/kg/injection, schedule: Q01DX001 (ip), vehicle: Klucel (hydroxypropylcellulose) (HPC)
[7] = dose: 50.0 mg/kg/injection, schedule: Q01DX009 (ip), vehicle: saline with Tween-80
[8] = dose: 100.0 mg/kg/injection, schedule: Q01DX009 (ip), vehicle: saline with Tween-80
[9] = dose: 100.0 mg/kg/injection, schedule: Q04DX003 (ip), vehicle: saline with Tween-80
[10] = dose: 200.0 mg/kg/injection, schedule: Q01DX009 (ip), vehicle: saline with Tween-80
[11] = dose: 100.0 mg/kg/injection, schedule: Q01DX001 (ip), vehicle: saline
[12] = dose: 200.0 mg/kg/injection, schedule: Q01DX001 (ip), vehicle: saline
[13] = dose: 400.0 mg/kg/injection, schedule: Q01DX001 (ip), vehicle: saline
[14] = dose: 100.0 mg/kg/injection, schedule: Q04DX002 (ip), vehicle: Klucel (hydroxypropylcellulose) (HPC)
[15] = dose: 200.0 mg/kg/injection, schedule: Q04DX002 (ip), vehicle: Klucel (hydroxypropylcellulose) (HPC)
[16] = dose: 400.0 mg/kg/injection, schedule: Q04DX002 (ip), vehicle: Klucel (hydroxypropylcellulose) (HPC)
[17] = dose: 100.0 mg/kg/injection, schedule: Q01DX009 (ip), vehicle: Klucel (hydroxypropylcellulose) (HPC)
[18] = dose: 200.0 mg/kg/injection, schedule: Q01DX009 (ip), vehicle: Klucel (hydroxypropylcellulose) (HPC)
[19] = dose: 200.0 mg/kg/injection, schedule: Q04DX003 (ip), vehicle: Klucel (hydroxypropylcellulose) (HPC)
[20] = dose: 400.0 mg/kg/injection, schedule: Q01DX009 (ip), vehicle: Klucel (hydroxypropylcellulose) (HPC)
[21] = dose: 400.0 mg/kg/injection, schedule: Q04DX003 (ip), vehicle: Klucel (hydroxypropylcellulose) (HPC)
[22] = dose: 100.0 mg/kg/injection, schedule: Q04DX003 (ip), vehicle: saline
[23] = dose: 200.0 mg/kg/injection, schedule: Q04DX003 (ip), vehicle: saline
[24] = dose: 100.0 mg/kg/injection, schedule: Q01DX001 (ip), vehicle: carboxymethylcellulose (CMC)
[25] = dose: 200.0 mg/kg/injection, schedule: Q01DX001 (ip), vehicle: carboxymethylcellulose (CMC)
[26] = dose: 400.0 mg/kg/injection, schedule: Q01DX001 (ip), vehicle: carboxymethylcellulose (CMC)

Measured: T/C

CCOC(=O)CCc1c(C(=O)OCC)[nH]c(C)c1C(=O)C(=O)OC
inactive: [1] 101 % of control | [2] 98 % of control | [3] 95 % of control | [4] 103 % of control | [5] 93 % of control | [6] 90 % of control

O=C(Nc1ccccc1)OCC(CN1CCCCC1)OC(=O)Nc1ccccc1 (stereo not given)
inactive: dose: 12.5 mg/kg/injection, schedule: Q01DX009 (ip), vehicle: saline with Tween-80 97 % of control | dose: 25.0 mg/kg/injection, schedule: Q01DX009 (ip), vehicle: saline with Tween-80 99 % of control | [7] 99 % of control | [8] 86 % of control | [9] 98 % of control | [10] 91 % of control | dose: 200.0 mg/kg/injection, schedule: Q04DX003 (ip), vehicle: saline with Tween-80 90 % of control

COC(=O)C(CC(C)C)NC(=O)C(Cc1ccccc1)NC(=O)C(CO)NC(=O)OCc1ccccc1 (stereo not drawn) (Cbz-Ser-Phe-Leu-OMe; configuration not given here)
inactive: [11] 93 % of control | [12] 93 % of control | [13] 94 % of control

CCCSCCSCCC
inactive: dose: 25.0 mg/kg/injection, schedule: Q04DX003 (ip), vehicle: saline with Tween-80 104 % of control | dose: 50.0 mg/kg/injection, schedule: Q04DX003 (ip), vehicle: saline with Tween-80 102 % of control | [9] 104 % of control and 90 % of control

CC(=O)OCC1OC(n2cnc([N+](=O)[O-])c2C#N)C(OC(C)=O)C1OC(C)=O (stereo not given)
inactive: dose: 50.0 mg/kg/injection, schedule: Q01DX001 (ip), vehicle: saline 102 % of control | [11] 108 % of control | [12] 102 % of control | [13] 92 % of control

CCCCCCCCCCCCCC(=O)[O][Hg][c]1ccccc1
inactive: dose: 75.0 mg/kg/injection, schedule: Q01DX001 (ip), vehicle: steriod suspending solution 96 % of control

O=c1oc(-c2cccc([N+](=O)[O-])c2)nc2ccccc12
inactive: [7] 97 % of control | [8] 94 % of control | [10] 93 % of control

Cc1ccc(C)c(Nc2cc(=O)[nH]c(=O)[nH]2)c1
inactive: dose: 100.0 mg/kg/injection, schedule: Q04DX003 (ip), vehicle: gum acacia 93 % of control | dose: 200.0 mg/kg/injection, schedule: Q04DX003 (ip), vehicle: gum acacia 91 % of control | dose: 400.0 mg/kg/injection, schedule: Q04DX003 (ip), vehicle: gum acacia 87 % of control

N#CCCN(CCC#N)[N+](=O)[O-]
inactive: dose: 87.5 mg/kg/injection, schedule: Q01DX009 (ip), vehicle: Klucel (hydroxypropylcellulose) (HPC) 97 % of control | [14] 98 % of control | dose: 100.0 mg/kg/injection, schedule: Q04DX002 (ip), vehicle: saline + alcohol 97 % of control | dose: 175.0 mg/kg/injection, schedule: Q01DX009 (ip), vehicle: Klucel (hydroxypropylcellulose) (HPC) 100 % of control | [15] 102 % of control | dose: 200.0 mg/kg/injection, schedule: Q04DX002 (ip), vehicle: saline + alcohol 105 % of control | [16] 87 % of control | dose: 400.0 mg/kg/injection, schedule: Q04DX002 (ip), vehicle: saline + alcohol 101 % of control

Cc1cccc(NC(=O)Nc2cc(C)on2)c1
inactive: [3] 100 % of control | [17] 91 % of control | [14] 98 % of control and 102 % of control | [4] 92 % of control | [5] 95 % of control | [18] 94 % of control and 91 % of control | [15] 94 % of control and 98 % of control | [19] 93 % of control | [6] 95 % of control | [20] 100 % of control and 91 % of control | [16] 98 % of control and 109 % of control | [21] 93 % of control

C=C1C(=O)OC2/C=C(/CO)C3OC3C3OC3(C)CC(OC(=O)/C(C)=C\COC(C)=O)C12 (stereo not given)
inactive: [1] 98 % of control | [2] 104 % of control | [4] 94 % of control and 89 % of control

COc1cccc(NC(=S)Nc2cccc(OC)c2)c1
inactive: dose: 100.0 mg/kg/injection, schedule: Q01DX001 (ip), vehicle: saline with Tween-80 108 % of control | [8] 95 % of control | dose: 100.0 mg/kg/injection, schedule: Q04DX002 (ip), vehicle: saline with Tween-80 91 % of control | dose: 200.0 mg/kg/injection, schedule: Q01DX001 (ip), vehicle: saline with Tween-80 104 % of control | [10] 92 % of control and 100 % of control | dose: 200.0 mg/kg/injection, schedule: Q04DX002 (ip), vehicle: saline with Tween-80 94 % of control and 96 % of control | dose: 400.0 mg/kg/injection, schedule: Q01DX001 (ip), vehicle: saline with Tween-80 101 % of control | dose: 400.0 mg/kg/injection, schedule: Q01DX009 (ip), vehicle: saline with Tween-80 90 % of control | dose: 400.0 mg/kg/injection, schedule: Q04DX002 (ip), vehicle: saline with Tween-80 104 % of control and 88 % of control

CCCCCCCCCCCCSC(=O)Nc1ccc(C(=O)OCC)cc1
inactive: [14] 95 % of control | [15] 116 % of control | [16] 92 % of control

Cc1cc(Cl)c2ccccc2[n+]1C
inactive: [22] 98 % of control

C(COCC1CO1)OCC1CO1 (stereo not given)
inactive: dose: 6.25 mg/kg/injection, schedule: Q01DX009 (ip), vehicle: saline 115 % of control | dose: 12.5 mg/kg/injection, schedule: Q01DX009 (ip), vehicle: saline 110 % of control | dose: 25.0 mg/kg/injection, schedule: Q01DX009 (ip), vehicle: saline 110 % of control and 118 % of control | dose: 100.0 mg/kg/injection, schedule: Q01DX009 (ip), vehicle: saline 120 % of control | [22] 122 % of control | dose: 200.0 mg/kg/injection, schedule: Q01DX Z (ip), vehicle: saline 121 % of control | [23] 91 % of control | dose: 300.0 mg/kg/injection, schedule: Q01DX Z (ip), vehicle: saline 114 % of control | dose: 450.0 mg/kg/injection, schedule: Q01DX Z (ip), vehicle: saline 122 % of control

CC1(C)COCN1CN1COCC1(C)C
inactive: [22] 101 % of control | [23] 95 % of control

Nc1ccc2c(c1)-c1ccc(F)cc1C2
inactive: [24] 89 % of control | [25] 100 % of control | [26] 94 % of control

COC1=C(NCc2ccccc2)C(=O)C(OC)=C(NCc2ccccc2)C1=O
inactive: dose: 50.0 mg/kg/injection, schedule: Q01DX001 (ip), vehicle: carboxymethylcellulose (CMC) 113 % of control | [24] 101 % of control | [17] 92 % of control | [4] 90 % of control | [25] 107 % of control | [18] 95 % of control | [19] 93 % of control | [26] 107 % of control | [20] 92 % of control | [21] 97 % of control
